Assay results published in article PMC10815238, “New N-Terminal Fatty-Acid-Modified Melittin Analogs with Potent Biological Activity” (International Journal of Molecular Sciences, 2024).

Tests used:
[1] = CD measurements of secondary structure; type: physicochemical; conditions: 0.5 mg/mL, 25 °C
Protocol: The CD spectra of the MDLs were measured at 25 °C on a Chirascan spectrometer (Applied Photophysics, Surrey, UK) using a quartz cell with a 1.0 mm path length, recording from 180 to 260 nm. A scanning speed of 50 nm/min was used and the bandwidth was 1 nm. The optical path and slit width were 0.1 cm and 0.1 nm, respectively. […], 50% TFE (Macklin, Shanghai, China) was used to mimic the hydrophobic condition of the microbial membrane, and 25 mM SDS (Macklin, Shanghai, China) micelles were used to mimic the negatively charged prokaryotic membrane. The observed ellipticity was converted to molar ellipticity using the following equation: θ=θobs(MRW/10×c×l) where [θ] is the molar ellipticity (deg·cm^2·dmol^−1), θobs is the observed ellipticity corrected for the buffer at a given wavelength (mdeg), MRW is the mean residual molecular weight (molecular weight/number of amino acids), c is the peptide concentration (mg/mL), and l is the path length (cm). Assuming lipopeptides were a two-state model, the percentage in the α-helix structure of the MDLs was calculated using the following equation: α-helical content=−([θ]222 +2000)/30,000×100%

E. coli ATCC 25922 = assay: Salt sensitivity (MIC in the presence of physiological salts); type: cell-based, Escherichia coli; parameters: key to MIC, NaCl / MIC, KCl / MIC, MgCl2: MIC in μg/mL (two-fold dilutions 256 to 0.25 μg/mL); conditions: for MIC, MgCl2: 1 mM MgCl2, unit not given in Table 4; for MIC, FeCl3: 4 mM FeCl3, unit not given in Table 4; for MIC, KCl: 4.5 mM KCl; for MIC, KCl / MIC, NaCl: unit not given in Table 4; for MIC, NaCl: 150 mM NaCl; for MIC, Control: no added salt, unit not given in Table 4 (Table 3 MIC in μg/mL)
Protocol: (§1) MIC was determined using the broth microdilution method with minor modification. In brief, bacteria (S. aureus ATCC 43300, E. faecalis ATCC 29212, E. coli ATCC 25922, P. aeruginosa ATCC 27853, L. monocytogenes CVCC 3764, B. cereus CVCC 4101, S. Castellani CGMCC 1.1869, and the multidrug-resistant E. coli strain) were cultured in nutrient broth (NB) medium (Macklin, Shanghai, China) to the logarithmic phase and diluted to 1 × 10^6 colony forming units (CFUs)/mL. The MDLs were dissolved to a final concentration of 256~0.25 μg/mL in NB medium using two-fold dilutions. A total of 50 μL of different concentrations of the MDL solutions and an equal volume of bacterial suspension were added to a 96-well plate, which was then incubated at 37 °C for 18 h. The minimum concentrations of the MDLs with no visible growth of bacteria were defined as the corresponding MICs. Media containing bacteria without the MDLs were set as the negative control. Each measurement was performed independently three times.
(§2) This was carried out in triplicate and tested at least twice.

[2] = Hydrophobicity assay (RP-HPLC retention time); type: physicochemical; conditions: chromatographic, ChromCore120 C18 column 4.6 x 250 mm 5 μm; 0.1 mg/mL in deionized water; A 0.1% TFA in water, B 0.1% TFA in acetonitrile; 5% B to 90% B over 30 min; 1 mL/min; UV 220 nm; three independent experiments
Source text: The hydrophobicity, amphipathicity, and positive charge distribution of lipopeptides are crucial for their antimicrobial activities. Among these, hydrophobicity has been deemed essential for promoting a hydrophobic interaction with the lipid bilayer, leading to membrane disruption, cytoplasm leakage, and eventual cell death. Lipopeptides with different peptide sequences and chain lengths usually show different hydrophobicities, generating different RTs in the RP-HPLC analysis. The more hydrophobic the lipopeptide, the longer the RT on the column.
Each MDL was dissolved and diluted to 0.1 mg/mL in deionized water (obtained in-house) and then subjected to RP-HPLC on a ChromCore120 C18 column (4.6 × 250 mm, 5 μm) (NanoChrom, Suzhou, China) using 0.1% trifluoroacetic acid (TFA) (Macklin, Shanghai, China) in water as solvent A and 0.1% TFA in acetonitrile (Merck, Darmstadt, Germany) as solvent B. The elution gradient was as follows: 5% B to 90% B over 30 min, 90% B maintained for 2 min, and 90% B to 5% B over 1 min. The flow rate was 1 mL/min and measurements were taken at 220 nm. The retention time was recorded for each MDL.

S. aureus ATCC 43300 = assay: Salt sensitivity (MIC in the presence of physiological salts); type: cell-based, Staphylococcus aureus; parameters: key: MIC in μg/mL (two-fold dilutions 256 to 0.25 μg/mL); conditions: for MIC, MgCl2: 1 mM MgCl2, unit not given in Table 4; for MIC, FeCl3: 4 mM FeCl3, unit not given in Table 4; for MIC, KCl: 4.5 mM KCl; for MIC, KCl / MIC, NaCl: unit not given in Table 4; for MIC, NaCl: 150 mM NaCl; for MIC, Control: no added salt, unit not given in Table 4 (Table 3 MIC in μg/mL)
Protocol: as §1, §2

SMILES | α-Helix, % ([1]; 25 mM SDS) | β-Fold, % ([1]; 25 mM SDS) | α-Helix, % ([1]; 50% TFE) | β-Fold, % ([1]; 50% TFE) | α-Helix, % ([1]; PBS Buffer) | β-Fold, % ([1]; PBS Buffer) | MIC, MgCl2 (E. coli ATCC 25922) | MIC, FeCl3 (E. coli ATCC 25922) | MIC, KCl (E. coli ATCC 25922) | MIC, NaCl (E. coli ATCC 25922) | MIC, Control (E. coli ATCC 25922) | RT, Min (RP-HPLC retention time, measure of hydrophobicity) [2] | MIC, MgCl2 (S. aureus ATCC 43300) | MIC, FeCl3 (S. aureus ATCC 43300) | MIC, KCl (S. aureus ATCC 43300) | MIC, NaCl (S. aureus ATCC 43300) | MIC, Control (S. aureus ATCC 43300)
CCCCCCCCCC(=O)NCC(=O)N[C@H](C(=O)NCC(=O)N[C@@H](C)C(=O)N[C@H](C(=O)N[C@@H](CC(C)C)C(=O)N[C@@H](CCCCN)C(=O)N[C@H](C(=O)N[C@@H](CC(C)C)C(=O)N[C@H](C(=O)N[C@H](C(=O)NCC(=O)N[C@@H](CC(C)C)C(=O)N1CCC[C@H]1C(=O)N[C@@H](C)C(=O)N[C@@H](CC(C)C)C(=O)N[C@H](C(=O)N[C@@H](CO)C(=O)N[C@@H](Cc1c[nH]c2ccccc12)C(=O)N[C@H](C(=O)N[C@@H](CCCCN)C(=O)N[C@@H](CCCNC(=N)N)C(=O)N[C@@H](CCCCN)C(=O)N[C@@H](CCCNC(=N)N)C(=O)N[C@@H](CCC(N)=O)C(=O)N[C@@H](CCC(N)=O)C(N)=O)[C@@H](C)CC)[C@@H](C)CC)[C@@H](C)O)[C@@H](C)O)C(C)C)C(C)C)[C@@H](C)CC [Peptide C10-Mel] | 17.1% | 28.8% | 18.4% | 22.1% | 7.5% | 41.1% | 32 | 32 | 16 | 8 | 8 | 20.541 ± 0.029 min | 32 | 32 | 8 | 2 | 2
CCCCCCCCCCCCCC(=O)NCC(=O)N[C@H](C(=O)NCC(=O)N[C@@H](C)C(=O)N[C@H](C(=O)N[C@@H](CC(C)C)C(=O)N[C@@H](CCCCN)C(=O)N[C@H](C(=O)N[C@@H](CC(C)C)C(=O)N[C@H](C(=O)N[C@H](C(=O)NCC(=O)N[C@@H](CC(C)C)C(=O)N1CCC[C@H]1C(=O)N[C@@H](C)C(=O)N[C@@H](CC(C)C)C(=O)N[C@H](C(=O)N[C@@H](CO)C(=O)N[C@@H](Cc1c[nH]c2ccccc12)C(=O)N[C@H](C(=O)N[C@@H](CCCCN)C(=O)N[C@@H](CCCNC(=N)N)C(=O)N[C@@H](CCCCN)C(=O)N[C@@H](CCCNC(=N)N)C(=O)N[C@@H](CCC(N)=O)C(=O)N[C@@H](CCC(N)=O)C(N)=O)[C@@H](C)CC)[C@@H](C)CC)[C@@H](C)O)[C@@H](C)O)C(C)C)C(C)C)[C@@H](C)CC [Peptide C14-Mel] | 15.5% | 31.7% | 16% | 25.2% | 12% | 31% | 256 | 256 | 64 | 128 | 32 | 25.621 ± 0.002 min | 256 | 256 | 64 | 64 | 32
CC[C@H](C)[C@H](NC(=O)CNC(C)=O)C(=O)NCC(=O)N[C@@H](C)C(=O)N[C@H](C(=O)N[C@@H](CC(C)C)C(=O)N[C@@H](CCCCN)C(=O)N[C@H](C(=O)N[C@@H](CC(C)C)C(=O)N[C@H](C(=O)N[C@H](C(=O)NCC(=O)N[C@@H](CC(C)C)C(=O)N1CCC[C@H]1C(=O)N[C@@H](C)C(=O)N[C@@H](CC(C)C)C(=O)N[C@H](C(=O)N[C@@H](CO)C(=O)N[C@@H](Cc1c[nH]c2ccccc12)C(=O)N[C@H](C(=O)N[C@@H](CCCCN)C(=O)N[C@@H](CCCNC(=N)N)C(=O)N[C@@H](CCCCN)C(=O)N[C@@H](CCCNC(=N)N)C(=O)N[C@@H](CCC(N)=O)C(=O)N[C@@H](CCC(N)=O)C(N)=O)[C@@H](C)CC)[C@@H](C)CC)[C@@H](C)O)[C@@H](C)O)C(C)C)C(C)C [Peptide C2-Mel] | 20.9% | 19.9% | 26.5% | 17.8% | 6% | 32.8% | 32 | 32 | 16 | 16 |  | 12.247 ± 0.021 min | 16 | 16 | 4 | 4 | 4
